Measurements: US11226337B2, “Chemoproteomic profiling of protein electrophilic and oxidative post-translational modifications” (Zenagem, LLC, priority 2017, dated 2022)

What was measured:
[1] = test system: HEK293T cells; assay: gel-based in situ probe labelling (rhodamine-azide, in-gel fluorescence); format: cell-based, human; details: soluble and membrane proteomes, 30 minutes
Procedure: For gel-based experiments, cells were plated and grown to near complete confluence at the time of treatment. Cells were washed with cold phosphate buffered saline (PBS, pH 7.4) and replenished with serum-free DMEM (˜15% of normal passage volume, e.g. a 10 cm plate normally passaged with 10 mL media received 1.5 mL) supplemented with 10 mM Na-HEPES buffer (pH 7.5). Unless otherwise indicated, cells were incubated with probes (3 mM and 1 mM for probes 1 and 2, respectively) in the absence or presence of 10-fold excess non-clickable competitor probes (30 mM and 10 mM for 3 and 4, respectively) for 0.5 hour at 37° C. When applicable, probe and competitor were premixed before co-administering to the cells.
The cells were lysed, and the cell proteomes were conjugated to a rhodamine-azide (Rh—N3) reporter tag.
Soluble proteomes from treated cells were diluted to 1 mg/mL. To each sample (50 μL), a freshly prepared “click” or CuAAC reagent mixture (6 μL) containing 0.1 mM tris(benzyltriazolylmethyl)amine (TBTA) (3 μL/sample, 1.7 mM in 4:1 DMSO:t-BuOH), 1 mM CuSO4 (1 μL/sample, 50 mM in H2O), 25 μM azide-rhodamine (1 μL/sample, 1.25 mM in DMSO), and freshly prepared 1 mM tris(2-carboxyethyl)phosphine (TCEP) (1 μL/sample, 50 mM in PBS or H2O) was added to conjugate the fluorophore to probe-labelled proteins. TBTA was purchased from TCI and azide-rhodamine was synthesized as previously described^64. Upon addition of the click mixture, each reaction was immediately mixed by vortexing and then allowed to react at ambient temperature for 1 hour before quenching the reactions with SDS loading buffer (4× stock, 17 μL). Proteins (˜25 μg total protein loaded per gel lane) were resolved by SDS-PAGE (10% acrylamide) and visualized by in-gel fluorescence scanning on a Hitachi FMBIO-II or BioRad ChemiDoc MP flatbed fluorescence scanner.

[2] = molecular target: T1, AMD1 (Homo sapiens, UniProt P17707); assay: gel-based RP-ABPP of transfected HEK293T cells; format: cell-based; details: transfected HEK293T cells vs mock
T1 construct: Full-length genes encoding three probe 1- and one probe 2-targeted proteins were amplified from a cDNA library; expressed in transfected cells; host or cells: HEK293T
T1 sequence (P17707 68-334 limits assumed): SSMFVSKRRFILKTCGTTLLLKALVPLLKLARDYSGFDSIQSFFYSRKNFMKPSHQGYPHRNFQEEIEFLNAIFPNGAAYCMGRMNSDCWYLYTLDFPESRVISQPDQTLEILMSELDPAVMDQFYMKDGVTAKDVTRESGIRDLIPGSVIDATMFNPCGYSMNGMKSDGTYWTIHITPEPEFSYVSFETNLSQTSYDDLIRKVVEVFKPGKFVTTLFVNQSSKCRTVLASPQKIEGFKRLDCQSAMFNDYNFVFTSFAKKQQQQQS
T1 sequence (P17707 1-67 limits assumed): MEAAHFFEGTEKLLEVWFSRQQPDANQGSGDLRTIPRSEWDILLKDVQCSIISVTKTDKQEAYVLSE
Procedure: Soluble proteomes from treated cells were diluted to 1 mg/mL. To each sample (50 μL), a freshly prepared “click” or CuAAC reagent mixture (6 μL) containing 0.1 mM tris(benzyltriazolylmethyl)amine (TBTA) (3 μL/sample, 1.7 mM in 4:1 DMSO:t-BuOH), 1 mM CuSO4 (1 μL/sample, 50 mM in H2O), 25 μM azide-rhodamine (1 μL/sample, 1.25 mM in DMSO), and freshly prepared 1 mM tris(2-carboxyethyl)phosphine (TCEP) (1 μL/sample, 50 mM in PBS or H2O) was added to conjugate the fluorophore to probe-labelled proteins. […] Upon addition of the click mixture, each reaction was immediately mixed by vortexing and then allowed to react at ambient temperature for 1 hour before quenching the reactions with SDS loading buffer (4× stock, 17 μL). Proteins (˜25 μg total protein loaded per gel lane) were resolved by SDS-PAGE (10% acrylamide) and visualized by in-gel fluorescence scanning on a Hitachi FMBIO-II or BioRad ChemiDoc MP flatbed fluorescence scanner. […]
After scanning fluorescence, that same gel was transferred to nitrocellulose membrane in Towbin buffer, the membrane was blocked for ˜1 hour at ambient temperature with 5% nonfat dry milk (w/v) in Tris-buffered saline with Tween 20 (TBST) and incubated with primary antibodies in the same solution overnight at 4° C. […]

[3] = molecular target: T2, AMD1 (Homo sapiens, UniProt P17707); assay: probe labelling of E. coli cells expressing the protein; format: cell-based; details: probe 1 3 mM or probe 2 1 mM, 37° C., 0.5 hour
T2 construct: made in house; host or cells: E. coli (intact cells treated with probe)
Procedure: Induced overnight cultures expressing each protein were resuspended in serum-free DMEM supplemented with 10 mM Na-HEPES buffer (pH 7.5) such that the final OD600 was ˜10. The probes were added to the cells (3 and 1 mM, respectively, for 1 and 2) and incubated at 37° C. for 0.5 hour. Note that these are the same conditions used for treatment of mammalian cells. The cells were pelleted (16,000 g, 3 min, 4° C.), washed with PBS (2×1 mL), and resuspended in HEPES buffer or PBS maintaining the same initial volume. Cells were lysed by sonication, debris was pelleted, soluble protein was diluted to 0.5 mg/mL with PBS and probe-labelled proteins were conjugated to rhodamine-azide and visualized as described above in Example 2.

[4] = test system: HEK293T and MDA-MB-231 cells; assay: determination of high-reactivity protein targets (SILAC RP-ABPP); format: cell-based, human; details: enrichment ratio >5 and competition ratio >4
Procedure: To further eliminate false positives and any stochastic variability in the data, protein ratios were then determined by the median peptide ratio derived from three or more unique quantified peptides. Protein ratios that complied with these criteria from a single experiment were then averaged with ratios acquired from ≥3 replicates to provide final values for each type of experiment in both cell lines with both probes. […] Most importantly, there are no robustly measured ratios for proteins identified as probe 1 targets that had measured ratios of ˜1 with probe 2. […]
Two types of experiments were performed—1) direct enrichment of probe 1-labelled proteins from heavy cells in comparison to light control cells treated with the non-clickable hydrazine (3) at the same concentration as 1 (3 mM for 0.5 h); and 2) competition experiments where both heavy and light cells were treated probe 1, but light cells were also treated with 10× competitor 3 (FIG. 3A)—in two different human cell lines (HEK293T cells and the human breast cancer cell line MDA-MB-231). […] The target list was further refined by requiring that each protein was detected with a minimum of three unique quantified peptides per experiment and by averaging protein ratios across three or more biological replicates per cell line.

## C#CCNN.Cl [probe 1, prop-2-yn-1-ylhydrazine hydrochloride]
[1]; hydrochloride
  protein labeling, in-gel fluorescence: Concentration-dependent protein labeling
[2]
  probe labeling of recombinant protein, in-gel fluorescence: reacted with both probes 1 and 2
[3]
  probe labelling of protein expressed in E. coli: reacts well
[4]
  number of high-reactivity proteins: ten

## C#CCCNC(=O)c1ccc(NN)cc1.Cl [probe 2, N-(but-3-yn-1-yl)-4-hydrazinylbenzamide hydrochloride]
[1]
  protein labeling, in-gel fluorescence: Concentration-dependent protein labeling
[2]
  probe labeling of recombinant protein, in-gel fluorescence: reacted with both probes 1 and 2
[3]
  probe labelling of protein expressed in E. coli: reacts well
[4]
  number of high-reactivity proteins: 33
